Where two headings read alike, the source gives them in different places.
Key:
[1] = system: FGFR3-TACC3_v2 expression/NIH3T3 cells (tumors); assay: Anti-tumorigenic activity in nude mice bearing subcutaneous tumors; format: in vivo; conditions: 30 mg/kg orally once a day for 11 days
Text: (§1) Cg-Foxn1Nu/Crlcrlj (Nu/Nu) nude mice (Charles River Laboratories, Japan) by means of subcutaneous injection performed in the back of the mice. Three days after the inoculation, AZD4547 and BGJ398 which are FGFR3-TACC3 fusion polypeptide inhibitors were started to be administered. For the test, 4 to 5 mice were assigned to each of the vehicle group and the compound group, AZD4547 and BGJ398 were suspended in a vehicle composed of 0.5% methyl cellulose (Shin-Etsu Chemical Co., Ltd.)/99.5% distilled water, and each of the compounds was orally administered at a dosage of 30 mg/kg. The administration was performed once a day for 11 days, and the body weight of mice and a tumor diameter were measured every 2 or 3 days. A tumor volume was calculated using the following formula. [Tumor volume (mm^3)]=[major axis of tumor (mm)]×[minor axis of tumor (mm)]^2×0.5

[2] = system: FGFR3-TACC3_v1 expression/NIH3T3 cells (tumors); assay: as above; format: in vivo; conditions: 30 mg/kg orally once a day for 11 days
Text: as §1

[3] = system: FGFR3-TACC3_v3 expression/NIH3T3 cells (tumors); assay: as above; format: in vivo; conditions: 30 mg/kg orally once a day for 11 days
Text: as §1

[4] = system: FGFR3-TACC3_v3 (N-FLAG) fusion polypeptide; assay: In vitro kinase activity of FGFR3-TACC3_v3 (N-FLAG) fusion polypeptide (HTRF KinEASE-TK, peptide substrate); format: biochemical, human; conditions: ATP 100 μM
[5] = system: FGFR3-TACC3_v2 expression/NIH3T3 cells; assay: Anchorage-independent cell proliferation, spheroid plate, CellTiter-Glo; conditions: Mus musculus, NIH3T3, 96 h, read-out: growth inhibition rate (%), v2
Description: (§4) The FGFR3-TACC3_v1 expression/NIH3T3 cells were seeded in a 96-well spheroid plate (Sumilon Cell-Tight Spheroid 96U; SUMITOMO BAKELITE CO., LTD.) with D-MEM containing 10% fetal bovine serum, such that the cell count in each well became 1×10^3. Moreover, as a positive control, a well added only with the medium was prepared. […] As a negative control, DMSO as a vehicle of the compound was added thereto at the same concentration (0.1%) as set at the time of adding the compound. Thereafter, the cells were cultured for 4 days at 37° C. in the presence of 5% CO2, and a reagent for cell count measurement (CellTiter-Glo™ Luminescent Cell Viability Assay; Promega Corporation) was added thereto. The resultant was stirred for 20 minutes, and the cell count was measured using a luminometer.
(§5) Moreover, the respective compounds were added such that the final concentration thereof became 100 nM, 10 nM, and 1 nM.

RT-112 cells = assay: Anchorage-independent proliferation of RT-112 bladder cancer cell line, spheroid plate, CellTiter-Glo; format: cell-based; conditions: Homo sapiens
Description: Moreover, as a positive control, a well added only with the medium was prepared. […] As a negative control, DMSO as a vehicle of the compound was added thereto at the same concentration (0.1%) at the time of adding the compound. Thereafter, the cells were cultured for 5 days at 37° C. in the presence of 5% CO2, and a reagent for cell count measurement (CellTiter-Glo™ Luminescent Cell Viability Assay; Promega Corporation) was added thereto. The resultant was stirred for 20 minutes, and the cell count was measured using a luminometer.
as §5

[6] = system: FGFR3-TACC3_v3 expression/NIH3T3 cells; assay: Anchorage-independent cell proliferation, spheroid plate, CellTiter-Glo; conditions: Mus musculus, NIH3T3, 96 h, read-out: growth inhibition rate (%), v3
Description: as §4, §5

[7] = system: cells expressing FGFR3-TACC3 fusion gene; conditions: reported in Science 2012; 337:1231-5; cited from earlier work
[8] = system: FGFR3-TACC3_v1 expression/NIH3T3 cells; assay: Anchorage-independent cell proliferation, spheroid plate, CellTiter-Glo; conditions: Mus musculus, NIH3T3, 96 h, read-out: growth inhibition rate (%), v1
Description: as §4, §5

[9] = system: FGFR3-TACC3_v2 (N-FLAG) fusion polypeptide; assay: In vitro kinase activity of FGFR3-TACC3_v2 (N-FLAG) fusion polypeptide (HTRF KinEASE-TK, peptide substrate); format: biochemical, human; conditions: ATP 100 μM
[10] = system: FGFR3-TACC3_v1 (N-FLAG) fusion polypeptide; assay: In vitro kinase activity of FGFR3-TACC3_v1 (N-FLAG) fusion polypeptide (HTRF KinEASE-TK, peptide substrate); format: biochemical, human; conditions: ATP 100 μM
[11] = biological target: T1, FGFR3-TACC3 fusion polypeptide v1 (Homo sapiens, UniProt P22607); assay: Kinase inhibition in tumor: phosphorylated FGFR3/total FGFR3 by ELISA; format: in vivo, nude mice; conditions: 4 hours after the final administration; dosing as Example 13
T1 construct: expressed in transfected cells; host or cells: NIH3T3 cells infected with FGFR3-TACC3_v1/pMXs-puro retrovirus, inoculated into nude mice
Description: (§2) For the test, 5 mice were assigned to each of the vehicle group and the compound group, and 4 hours after the final administration, tumors were extracted by dissection. Thereafter, by using a lysis solution (Cell Lysis Buffer; Cell Signaling Technology, Inc., Phosphatase Inhibitor Cocktail; Thermo Fisher Scientific Inc., Complete; Roche, Ltd.), protein extracts of the tumors were rapidly prepared, and the total FGFR3 level and a phosphorylated FGFR3 level of the tumors were measured using an ELISA kit (R&D Systems). ELISA was performed according to the attached procedure manual, but detection was performed in a different way in which the chemiluminescence detection is conducted using a chemiluminescent reagent (BM chemiluminescence ELISA substrate; Roche, Ltd.) and a luminometer (ARVO; PerkinElmer Inc.).
(§3) A level obtained by correcting the phosphorylated FGFR3 level by using the total FGFR3 level (phosphorylated FGFR3 level/total FGFR3 level) was taken as a phosphorylation level.

FGFR3-TACC3_v2 = biological target: T2, FGFR3-TACC3_v2 (Homo sapiens, UniProt P22607, F384L); assay: as above; format: in vivo, nude mice; conditions: 4 hours after the final administration; dosing as Example 13
T2 construct: in order to express a full length of ORF of FGFR3-TACC3_v2 as a protein; expressed in transfected cells; host or cells: NIH3T3 cells infected with FGFR3-TACC3_v2/pMXs-puro retrovirus, inoculated into nude mice
Description: as §2, §3

FGFR3-TACC3_v3 = biological target: T3, FGFR3-TACC3_v3 (Homo sapiens, UniProt P22607); assay: as above; format: in vivo, nude mice; conditions: 4 hours after the final administration; dosing as Example 13
T3 construct: in order to express a full length of ORF of FGFR3-TACC3_v3 as a protein; expressed in transfected cells; host or cells: NIH3T3 cells infected with FGFR3-TACC3_v3/pMXs-puro retrovirus, inoculated into nude mice
Description: as §2, §3

[12] = system: cell line intrinsically expressing an EML4-ALK fusion gene; conditions: Clin. Cancer Res. 2008; 4275-4283; cited from earlier work
[13] = RT-112, 120 h, final concentration 100 nM, Example 16: 2×10^3 cells per well, 5 days, read-out: growth inhibition rate (%), RT-112
[14] = RT-112, read-out: growth inhibition rate (%), RT-112
[15] = RT-112, final concentration 1 nM, Example 30: 1×10^3 cells per well, RPMI1640 with 2 mM L-glutamine, otherwise as Example 9, read-out: growth inhibition rate (%), RT-112
[16] = RT-112, final concentration 10 nM, Example 30: 1×10^3 cells per well, RPMI1640 with 2 mM L-glutamine, otherwise as Example 9, read-out: growth inhibition rate (%), RT-112
[17] = RT-112, final concentration 100 nM, Example 30: 1×10^3 cells per well, RPMI1640 with 2 mM L-glutamine, otherwise as Example 9, read-out: growth inhibition rate (%), RT-112

Row | Structure (SMILES) | Inhibition against peptide substrate FGFR3-TACC3 v3 ([4]; final concentration 1 nM) [%] | Inhibition against peptide substrate FGFR3-TACC3 v3 ([4]; final concentration 10 nM) [%] | Inhibition against peptide substrate FGFR3-TACC3 v3 ([4]; final concentration 100 nM) [%] | inhibition at 0.1 µM [5] [%] | inhibition at 0.1 µM [6] [%] | inhibition at 0.1 µM [8] [%] | Inhibition against peptide substrate FGFR3-TACC3 v2 ([9]; final concentration 1 nM) [%] | Inhibition against peptide substrate FGFR3-TACC3 v2 ([9]; final concentration 10 nM) [%] | Inhibition against peptide substrate FGFR3-TACC3 v2 ([9]; final concentration 100 nM) [%] | Inhibition against peptide substrate FGFR3-TACC3 v1 ([10]; final concentration 1 nM) [%] | Inhibition against peptide substrate FGFR3-TACC3 v1 ([10]; final concentration 10 nM) [%] | Inhibition against peptide substrate FGFR3-TACC3 v1 ([10]; final concentration 100 nM) [%] | inhibition at 0.001 µM [5] [%] | inhibition at 0.001 µM (RT-112 cells; [15]) [%] | inhibition at 0.01 µM (RT-112 cells; [16]) [%] | inhibition at 0.001 µM [6] [%] | inhibition at 0.01 µM [6] [%] | inhibition at 0.001 µM [8] [%] | inhibition at 0.01 µM [8] [%] | inhibition at 0.01 µM [5] [%] | also measured
1 | COc1cc(CCc2cc(NC(=O)c3ccc(N4C[C@@H](C)N[C@@H](C)C4)cc3)[nH]n2)cc(OC)c1 [AZD4547, N-{5-[2-(3,5-dimethoxyphenyl)ethyl]-2H-pyrazol-3-yl}-4-[(3R,5S)-3,5-dimethylpiperazin-1-yl]benzamide] | 9 | 52 | 74 | 60 | 51 | 74 | 16 | 50 | 77 | 13 | 46 | 69 |  |  |  |  |  |  |  |  | inhibition of proliferation of tumors (tumor volume) [1]: 61%; inhibition of proliferation of tumors (tumor volume) [2]: 51%; inhibition of growth of tumors (tumor volume) [3]: 73%; inhibition at 0.1 µM (RT-112 cells; [13]): 90%; proliferation of cells expressing FGFR3-TACC3 fusion gene [7]: inhibited the proliferation; reduction of tyrosine auto-phosphorylation in the tumor compared to the vehicle group [11]: 58%; reduction of tyrosine auto-phosphorylation in the tumor compared to the vehicle group (FGFR3-TACC3_v2): 54%; reduction of tyrosine auto-phosphorylation in the tumor compared to the vehicle group (FGFR3-TACC3_v3): 78%
2 | COc1cc(Nc2ncc(OCc3c(F)c(OC)cc(OC)c3F)cn2)ccc1N1CCC(N2CCN(C)CC2)CC1 [Compound A, 5-[(2,6-difluoro-3,5-dimethoxybenzyl)oxy]-N-{3-methoxy-4-[4-(4-methylpiperazin-1-yl)piperidin-1-yl]phenyl}pyrimidin-2-amine] |  |  |  |  |  |  |  |  |  |  |  |  |  |  |  |  |  |  |  |  | inhibition at 0.001 µM (RT-112 cells; [14]): 29%; inhibition at 0.01 µM (RT-112 cells; [14]): 83%; inhibition at 0.1 µM (RT-112 cells; [14]): 90%
3 | COc1cc(OC)c(F)c(COc2cnc(Nc3cnn(C[C@@H](O)CO)c3)nc2)c1F [Compound C, (2R)-3-[4-({5-[(2,6-difluoro-3,5-dimethoxybenzyl)oxy]pyrimidin-2-yl}amino)-1H-pyrazol-1-yl]propane-1,2-diol] | 41 |  | 96 |  |  |  | 22 | 73 | 95 |  | 79 | 95 | 0 | 21 | 72 | 3 | 24 | 5 | 44 |  | 
4 | COc1cc(OC)c(F)c(COc2cnc(Nc3ccc(N4CCN(C)CC4)cc3)nc2)c1F [Compound D, 5-[(2,6-difluoro-3,5-dimethoxybenzyl)oxy]-N-[4-(4-methylpiperazin-1-yl)phenyl]pyrimidin-2-amine] | 45 | 85 | 97 | 88 | 89 | 90 | 27 | 80 | 95 | 34 | 80 | 94 | 23 | 23 | 80 | 25 | 79 | 26 | 84 | 79 | inhibition at 0.1 µM (RT-112 cells; [17]): 89%
5 | COc1cc(OC)c(F)c(COc2cnc(Nc3cc(CN4CCN(C)CC4)n(C)n3)nc2)c1F [Compound E, 5-[(2,6-difluoro-3,5-dimethoxybenzyl)oxy]-N-{1-methyl-5-[(4-methylpiperazin-1-yl)methyl]-1H-pyrazol-3-yl}pyrimidin-2-amine] | 30 | 55 | 91 | 79 | 81 | 84 | 6 | 25 | 78 | 7 | 40 | 86 | 11 | 5 | 33 | 6 | 20 | 7 | 28 | 29 | inhibition at 0.1 µM (RT-112 cells; [17]): 81%
6 | CN1CCN(c2ccc3nc(-c4c(N)c5c(F)cccc5[nH]c4=O)[nH]c3c2)CC1 [Dovitinib, 4-amino-5-fluoro-3-[6-(4-methylpiperazin-1-yl)-1H-benzo[d]imidazol-2-yl]quinoline-2(1H)-one, reference compound] |  |  |  |  |  |  |  |  |  |  |  |  |  |  |  |  |  |  |  |  | inhibition at 0.1 µM (RT-112 cells; [13]): 80%
7 | C[C@@H](Oc1ccc2[nH]nc(/C=C/c3cnn(CCO)c3)c2c1)c1c(Cl)cncc1Cl [LY2874455, (R)-(E)-2-{4-[2-{5-[1-(3,5-dichloropyridin-4-yl)ethoxy]-1H-indazol-3-yl}vinyl]-1H-pyrazol-1-yl}ethanol, reference compound] | 57 | 83 |  |  |  |  | 64 | 87 |  | 46 | 77 |  |  |  |  |  | 89 |  | 88 | 90 | Inhibition against peptide substrate FGFR3-TACC3 v3 ([4]; final concentration 0.1 nM): 3%; Inhibition against peptide substrate FGFR3-TACC3 v2 ([9]; final concentration 0.1 nM): 15%; Inhibition against peptide substrate FGFR3-TACC3 v1 ([10]; final concentration 0.1 nM): 12%
8 | CCN(CC)CCCCNc1ncc2cc(-c3cc(OC)cc(OC)c3)c(NC(=O)NC(C)(C)C)nc2n1 [PD173074] |  |  |  |  |  |  |  |  |  |  |  |  |  |  |  |  |  |  |  |  | proliferation of cells expressing FGFR3-TACC3 fusion gene [7]: inhibited the proliferation
9 | COc1cc(N2CCC(N3CCN(C)CC3)CC2)ccc1Nc1ncc(Cl)c(Nc2ccccc2S(=O)(=O)C(C)C)n1 [TAE684] |  |  |  |  |  |  |  |  |  |  |  |  |  |  |  |  |  |  |  |  | growth of the cell [12]: growth of the cell is inhibited; phosphorylation of ALK [12]: phosphorylation is inhibited
